The nature of data set [1]: Storage stability of the amorphous state (XRPD assessment). It counts as physicochemical. As to conditions: single polyethylene bag, 2 months. How it is done:
For quantitative XRPD assessment ZnO (XRPD spectrum FIG. 3A) was used as internal standard. Three characteristics peaks of crystalline sylibinin (2-theta: 20.7, 22.3 and 24.5°) were chosen for the quantitative determination of the crystalline form and peaks at 2-theta: 56.6 and 62.8° of the internal standard (IS, ZnO) were used as reference as reported in FIG. 3B.
XRPD spectra were obtained using X'Pert diffractometer from PANalytical, using the following parameters for acquisition and data processing:
Silibinin samples obtained according to the present invention were stored at 4±2° C. at 60% R.H., 25±2° C. at 60±5% R.H. and 40±2° C. at 60±5% R.H., in a single polyethylene bag for 2 months. After this time the samples were analyzed by XRPD.

Data set [2] in a line: Solubility (HPLC - Ph. Eur. 01/2007:2071) after 30 min. It counts as physicochemical. How it is done:
A “silibinin release rate of 80% or greater” means that the amorphous silibinin is at least 80% soluble in aqueous solution (standard according to Ph. Eur.).
Several lots of silibinin manufactured according to the method of the invention, including steps L and M, were analyzed using the XRPD method described in example 2.
Solubility of this product (HPLC—Ph. Eur. 01/2007:2071) after 30 min. is higher than 80%. Conversely the silibinin obtained according to the method of the invention without performing steps L and M, though of high chemical purity is mainly crystalline (typically more than 70% crystalline).
Solubility of this product (HPLC—Ph. Eur. 01/2007:2071) after 30 min. is lower than 80%.

This note sets out measurements from US8614341B2, “Amorphous silibinin for the treatment of viral hepatitis” (Euromed S.A., priority 2009, dated 2013).

Turning to `COc1cc(C2Oc3cc(C4Oc5cc(O)cc(O)c5C(=O)C4O)ccc3OC2CO)ccc1O` (stereo not drawn) [amorphous silibinin samples, containing about 10% of crystal] [reference compound], in data set [1] (25±2° C. at 60±5% R.H.), the “stability of amorphous state (XRPD)” value is “extended crystallization”.

In the case of `COc1cc(C2Oc3cc(C4Oc5cc(O)cc(O)c5C(=O)C4O)ccc3OC2CO)ccc1O` (stereo not drawn) [amorphous silibinin, silibinin], in data set [2], the “Solubility (HPLC - Ph. Eur. 01/2007:2071)” value is “higher than 80%”. Moreover, the “stability of amorphous state (XRPD)” value in data set [1] (4±2° C. at 60% R.H.), in data set [1] (25±2° C. at 60±5% R.H.) and in data set [1] (40±2° C. at 60±5% R.H.) was “stable” each time.

For `COc1cc(C2Oc3cc(C4Oc5cc(O)cc(O)c5C(=O)C4O)ccc3OC2CO)ccc1O` (stereo not drawn) [silibinin obtained without performing steps L and M] [reference compound], the “Solubility (HPLC - Ph. Eur. 01/2007:2071)” value in data set [2] is given as “lower than 80%”.
